In patent US10544142B2, “Crystal forms of palbociclib, and preparation method and use therefor” (SHANGHAI BEGREAT PHARMATECH, priority 2016, dated 2020):

How the values were obtained:
[1] = prior art statement; cited from earlier work
[2] = Solubility of crystal Forms in pH 6.8 buffer (1 hour equilibration, filtration, HPLC); type: physicochemical; settings: for Solubility in pH 6.8 buffer: 20 mg in 1 mL, equilibrated for 1 hour, 0.45 μm filter, HPLC; for solubility in pH 6.8 buffer compared to existing crystal Forms: comparison with crystal Forms A and B
Experimental: The solubility of several new crystal Forms prepared in the above examples and Form A and B (prepared according to the method of WO2014128588A1) in a pH buffer solution (pH 6.8) was determined. 20 mg Form VIII, Form IX, Form XIV, Form A and Form B was precisely weighed and placed in a 2-mL glass vial, 1 mL of pH 6.8 buffer was added, sealed with cap, and mixed on a rotating mixer. After the suspension was equilibrated for 1 hour, the mixture was filtered through a 0.45 μm needle filter, and the concentration of 6-Acetyl-8-cyclopentyl-5-methyl-2-(5-piperazin-1-yl-pyridin-2-ylamino)-8H-pyrido[2,3-d]pyrimidin-7-one in the filtrate was analyzed by HPLC to obtain the solubility of different crystal Forms. The solubility of the polymorphs of 6-Acetyl-8-cyclopentyl-5-methyl-2-(5-piperazin-1-yl-pyridin-2-ylamino)-8H-pyrido[2,3-d]pyrimidin-7-one is shown in the following table: […]

[3] = Dissolution rate in pH 6.8 buffer; type: physicochemical; settings: comparison with crystal Forms A and B

SMILES: CC(=O)c1c(C)c2cnc(Nc3ccc(N4CCNCC4)cn3)nc2n(C2CCCC2)c1=O [Form A, 6-Acetyl-8-cyclopentyl-5-methyl-2-(5-piperazin-1-yl-pyridin-2-ylamino)-8H-pyrido[2,3-d]pyrimidin-7-one, reference compound]
- solubility in water [1]: very small
- Solubility in pH 6.8 buffer [2]: 0.002 mg/mL

SMILES: CC(=O)c1c(C)c2cnc(Nc3ccc(N4CCNCC4)cn3)nc2n(C2CCCC2)c1=O [Form B, 6-Acetyl-8-cyclopentyl-5-methyl-2-(5-piperazin-1-yl-pyridin-2-ylamino)-8H-pyrido[2,3-d]pyrimidin-7-one, reference compound]
- solubility in water [1]: very small
- Solubility in pH 6.8 buffer [2]: 0.003 mg/mL

SMILES: CC(=O)c1c(C)c2cnc(Nc3ccc(N4CCNCC4)cn3)nc2n(C2CCCC2)c1=O [Form VIII, 6-Acetyl-8-cyclopentyl-5-methyl-2-(5-piperazin-1-yl-pyridin-2-ylamino)-8H-pyrido[2,3-d]pyrimidin-7-one]
- dissolution rate in pH 6.8 buffer compared to existing crystal Forms [3]: greater than the existing crystal Forms A and B
- Solubility in pH 6.8 buffer [2]: 0.010 mg/mL
- solubility in pH 6.8 buffer compared to existing crystal Forms [2]: greater than the existing crystal Forms A and B

SMILES: CC(=O)c1c(C)c2cnc(Nc3ccc(N4CCNCC4)cn3)nc2n(C2CCCC2)c1=O [Form XI, 6-Acetyl-8-cyclopentyl-5-methyl-2-(5-piperazin-1-yl-pyridin-2-ylamino)-8H-pyrido[2,3-d]pyrimidin-7-one]
- dissolution rate in pH 6.8 buffer compared to existing crystal Forms [3]: greater than the existing crystal Forms A and B
- solubility in pH 6.8 buffer compared to existing crystal Forms [2]: greater than the existing crystal Forms A and B

SMILES: CC(=O)c1c(C)c2cnc(Nc3ccc(N4CCNCC4)cn3)nc2n(C2CCCC2)c1=O [Form IX, 6-Acetyl-8-cyclopentyl-5-methyl-2-(5-piperazin-1-yl-pyridin-2-ylamino)-8H-pyrido[2,3-d]pyrimidin-7-one]
- Solubility in pH 6.8 buffer [2]: 0.015 mg/mL

SMILES: CC(=O)c1c(C)c2cnc(Nc3ccc(N4CCNCC4)cn3)nc2n(C2CCCC2)c1=O [Form XIV, 6-Acetyl-8-cyclopentyl-5-methyl-2-(5-piperazin-1-yl-pyridin-2-ylamino)-8H-pyrido[2,3-d]pyrimidin-7-one]
- dissolution rate in pH 6.8 buffer compared to existing crystal Forms [3]: greater than the existing crystal Forms A and B
- Solubility in pH 6.8 buffer [2]: 0.012 mg/mL
- solubility in pH 6.8 buffer compared to existing crystal Forms [2]: greater than the existing crystal Forms A and B
